Results from ChEMBL document CHEMBL3124787, “Discovery of novel bis-oxazolidinone compounds as potential potent and selective antitubercular agents” (Bioorg Med Chem Lett, 2014).
Converted amounts (≈) assume the structure as drawn.

Experiments:
[1] = tested on: Mycolicibacterium smegmatis; test: Antibacterial activity against Mycobacterium smegmatis assessed as growth inhibition after 18 hrs by broth microdilution method; format: functional
[2] = tested on: Staphylococcus aureus; test: Antibacterial activity against methicillin-resistant Staphylococcus aureus ATCC 33591 assessed as growth inhibition after 18 hrs by broth microdilution method; format: functional; conditions: ATCC 33591, 18 h
[3] = tested on: Vero; test: Cytotoxicity against African green monkey Vero cells after 48 hrs by MTT assay; format: cell-based; conditions: Chlorocebus sabaeus
[4] = Selectivity index, ratio of IC50 for African green monkey Vero cells to MIC for Mycobacterium tuberculosis H37RV ATCC 27294; format: toxicity, cell-based; conditions: read-out: Selectivity Index
[5] = Lipophilicity, log P of the compound by HPLC analysis; format: physicochemical
[6] = tested on: Escherichia coli; test: Antibacterial activity against Escherichia coli ATCC 25922 assessed as growth inhibition after 18 hrs by broth microdilution method; format: functional; conditions: ATCC 25922, 18 h
[7] = tested on: Mycobacterium tuberculosis; test: Antitubercular activity against Mycobacterium tuberculosis H37RV ATCC 27294 assessed as growth inhibition after 3 to 11 days by microdilution method; format: functional
[8] = tested on: Staphylococcus aureus; test: Antibacterial activity against methicillin-resistant Staphylococcus aureus ATCC 43300 assessed as growth inhibition after 18 hrs by broth microdilution method; format: functional; conditions: ATCC 43300, 18 h
[9] = tested on: Staphylococcus aureus; test: Antibacterial activity against methicillin-susceptible Staphylococcus aureus CMCC 26003 assessed as growth inhibition after 18 hrs by broth microdilution method; format: functional; conditions: CMCC 26003, 18 h
[10] = tested on: Staphylococcus aureus; test: Antibacterial activity against methicillin-susceptible Staphylococcus aureus ATCC 29213 assessed as growth inhibition after 18 hrs by broth microdilution method; format: functional; conditions: ATCC 29213, 18 h
[11] = tested on: Pseudomonas aeruginosa; test: Antibacterial activity against Pseudomonas aeruginosa ATCC 27853 assessed as growth inhibition after 18 hrs by broth microdilution method; format: functional; conditions: ATCC 27853, 18 h
[12] = tested on: Staphylococcus aureus; test: Antibacterial activity against methicillin-susceptible Staphylococcus aureus ATCC 6538 assessed as growth inhibition after 18 hrs by broth microdilution method; format: functional; conditions: ATCC 6538, 18 h
[13] = tested on: Staphylococcus aureus; test: Antibacterial activity against methicillin-susceptible Staphylococcus aureus ATCC 25923 assessed as growth inhibition after 18 hrs by broth microdilution method; format: functional; conditions: ATCC 25923, 18 h
[14] = Aqueous solubility of the compound by HPLC analysis; format: physicochemical

Row | Compound | MIC99 [1] [µg/mL] | MIC99 [2] [µg/mL] | IC50 [3] [µg/mL] | selectivity ratio [4] | logP [5] | MIC99 [6] [µg/mL] | MIC [7] [µg/mL] | MIC99 [8] [µg/mL] | MIC99 [9] [µg/mL] | MIC99 [10] [µg/mL] | MIC99 [11] [µg/mL] | MIC99 [12] [µg/mL] | MIC99 [13] [µg/mL] | solubility [14] [µM]
1 | CC(=O)NC[C@H]1CN(c2ccc(OC[C@@H]3CN(c4ccccc4)C(=O)O3)c(F)c2)C(=O)O1 | > 64 | 16 (≈ 36.1 µM) | > 5000 | > 40000 | 1.78 | > 32 | 0.125 (≈ 0.282 µM) | 16 (≈ 36.1 µM) | 16 (≈ 36.1 µM) | 16 (≈ 36.1 µM) | > 32 | 8 (≈ 18 µM) | 16 (≈ 36.1 µM) | 14 (≈ 6.21 µg/mL)
2 | CC(=O)NC[C@H]1CN(c2ccc(OC[C@H]3CN(c4ccccc4)C(=O)O3)c(F)c2)C(=O)O1 | 32 (≈ 72.2 µM) | 16 (≈ 36.1 µM) | 63.6 (≈ 143 µM) | 254 | 1.86 | > 32 | 0.25 (≈ 0.564 µM) | 8 (≈ 18 µM) | 4 (≈ 9.02 µM) | 8 (≈ 18 µM) | > 32 | 4 (≈ 9.02 µM) | 8 (≈ 18 µM) | 164 (≈ 72.7 µg/mL)
